# Experimental data from patent US9102675B2, “3-Cyanoaryl-1H-pyrrolo[2,3-B] pyridine derivatives” (MERCK PATENT GMBH, priority 2011, dated 2015).
# pIC50: −log10 of the molar value.
# Tests used:
# TBK1 + IKKε = TBK1 + IKKε cell assay: dose response inhibition of phospho-IRF3 @ Ser 386 in MDA-MB-468 cells after poly(I:C) stimulation; type: cell-based; details: Homo sapiens, MDA-MB-468, MDA-MB-468 cells, reference inhibitor, read-out: IC50 of reference inhibitor in phospho-IRF3 cell assay
# Source text: Dose response inhibition of phospho-IRF3 @ Ser 386 cell/MDAMB468/INH/PHOS/IMAG/pIRF3
# Although TBK1 and IKKε are mainly known as key substances in the innate immune response, recent findings have indicated a role for TBK1 and IKKε in Ras-induced oncogenic transformation. TBK1 was identified as RaIB effector in the Ras-like (RaI)-guanine nucleotide exchange factor (GEF) pathway that is required for Ras-induced transformation. TBK1 directly activates IRF3 which, on phosphorylation, homodimerises and translocates to the nucleus, where it activates processes associated with inflammation, immune regulation, cell survival and proliferation.
# This assay has been developed in order to assess the efficacy/potency of TBK1/IKKε inhibitor compounds based on the immunocytochemical detection of nucleus-localised phospho-IRF3, a target directly downstream of TBK1. Treatment with polyinosine-polycytidylic acid (poly(I:C), a synthetic analogue of double-stranded RNA (dsRNA), a molecular pattern associated with viral infection and recognised by Toll-like receptor 3 (TLR3) is used to induce TBK1/IKKε activity and IRF3 phosphorylation at Ser386.
# Day 1: MDA-MB-468 cells are detached using HyQ-Tase, counted and sown into a 384-well plate with TC surface and clear bottom in a density of 10,000 cells per well in a total volume of 35 μl of complete medium. Alternatively, the cells are sown directly from frozen glass vials.
# Day 2: The cells are pre-treated with inhibitor compounds for 1 h prior to poly(I:C) stimulation. After incubation for 2 h with poly(I:C), the cells are fixed in (para)formaldehyde (PFA) and permeabilised using methanol (MeOH). The cells are then blocked and incubated with an anti-pIRF3 antibody at 4° C. overnight.
# Day 3: The primary antibody is washed off, an AlexaFluor488-conjugated secondary antibody is added, the cells are contrast-stained with propidium iodide, followed by image acquisition on an IMX ultra-high content reader.
# Plating medium=culture medium: • RPMI 1640, Invitrogen #31870 • 10% of FCS, Invitrogen #10270-106 • 2 mM Glutamax, Invitrogen #35050-038 • 1 mM sodium pyruvate, Invitrogen #11360 • 1% of Pen/Strep • 37° C., 5% of CO2
# Plates: 384-well bottom cell culture plates with black/clear bottom, Falcon #35 3962 or Greiner #781090
# Subcultivation: HyQ-Tase, Thermo Scientific (HyClone) # SV30030.01
# Poly(I:C) (LMW), Invitrogen # tlrl-picw (prepare 20 mg/ml stock solution in sterile PBS, denature 30 min 55° C. in a water bath, slowly cool to RT, store at −20° C. in aliquots)
# a 10-point dose-response curve with MSC2119074A-4=BX-795 is included in each experiment
# Formaldehyde (methanol-free, 16%, ultrapure EM grade), Polysciences #18814 (storage RT), final conc.: 4%
# Goat serum, PAA # B15-035 (storage 4° C., long term −20° C.), final conc.: 10%
# BSA (IgG- and protease-free, 30%), US-Biological # A1317 (storage 4° C., long term −20° C.), final conc.: 2%
# Tween 20 detergent, Calbiochem #655204 (storage RT), (prepare 10% stock solution in water; final conc.: 0.1%)
# Anti-pIRF-3 rabbit mAb, Epitomics #2526-B (storage −20° C.), final conc.: 1:2000 in PBS/2% of BSA
# Alexa Fluor goat-anti-rabbit-488, Invitrogen # A11034 or # A11008 (storage 4° C., dark), final conc.: 1:2000 in PBS/2% of BSA/0.1% of Tween
# Propidium iodide (PI), Fluka #81845, 1 mg/ml in H2O (storage 4° C., dark), final conc.: 0.2 μg/ml
# (1) Sow 10,000 cells/well/35μof complete RPMI +10% FCS into 384-well bottom cell culture plates with black / clear bottom,
# (2) Incubate for 2 h at room temperature on the bench, followed by further incubation for 22 h at 37° C., 5% of CO2 and 90% RH. […]
# IKKε = target: T1, IKKε (Homo sapiens, UniProt Q14164); assay: IKKε kinase assay (384-well flashplate assay); type: biochemical; details: 10 μM ATP, 1 nM IKKε; read-out: IKKε enzyme assay IC50
# T1 sequence (Q14164 1-716): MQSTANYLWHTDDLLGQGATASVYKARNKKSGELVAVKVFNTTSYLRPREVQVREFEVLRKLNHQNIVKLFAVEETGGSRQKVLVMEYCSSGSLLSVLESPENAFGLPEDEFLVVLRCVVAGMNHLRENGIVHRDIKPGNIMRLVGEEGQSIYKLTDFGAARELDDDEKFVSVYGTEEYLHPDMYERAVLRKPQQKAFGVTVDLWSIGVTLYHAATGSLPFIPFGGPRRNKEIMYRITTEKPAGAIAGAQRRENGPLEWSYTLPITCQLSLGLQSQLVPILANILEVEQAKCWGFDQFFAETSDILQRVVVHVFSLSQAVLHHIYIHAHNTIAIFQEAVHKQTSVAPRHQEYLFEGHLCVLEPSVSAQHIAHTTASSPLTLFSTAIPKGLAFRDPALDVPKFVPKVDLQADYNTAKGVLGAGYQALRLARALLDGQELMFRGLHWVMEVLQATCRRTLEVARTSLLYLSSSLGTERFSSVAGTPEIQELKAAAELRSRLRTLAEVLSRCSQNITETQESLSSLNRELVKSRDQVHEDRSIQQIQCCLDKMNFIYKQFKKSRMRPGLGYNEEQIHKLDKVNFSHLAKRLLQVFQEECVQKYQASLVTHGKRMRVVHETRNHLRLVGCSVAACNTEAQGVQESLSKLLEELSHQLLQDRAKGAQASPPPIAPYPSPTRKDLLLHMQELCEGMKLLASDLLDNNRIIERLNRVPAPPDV
# Procedure: Test for the Inhibition of IKKε
# IKKε—Kinase Assay (IKKepsilon)
# (§1) The kinase assay is performed as 384-well flashplate assay (for example for Topcount measurement).
# 1 nM IKKε, 800 nM biotinylated IκKα(19-42) peptide (Biotin-C6-C6-[…]) and 10 μM ATP (spiked with 0.3 μCi of ^33P-ATP/well) are incubated at 30° C. for 2 hours in a total volume of 50 μl (10 mM MOPS, 10 mM Mg acetate, 0.1 mM EGTA, 1 mM dithiothreitol, 0.02% of Brij35, 0.1% of BSA, 0.1% of BioStab, pH 7.5) with or without test compound. The reaction is stopped using 25 μl of 200 mM EDTA. After 30 min at room temperature, the liquid is removed, and each well is washed three times with 100 μl of 0.9% sodium chloride solution. Non-specific reaction is determined in the presence of 3 μM MSC2119074 (BX-795). The radioactivity is measured using a Topcount (Perkin Elmer). The results (for example IC50 values) are calculated using program tools provided by the IT Department (for example AssayExplorer, Symyx).
# [1] = target: T2, TANK binding kinase (TBK1) (Homo sapiens, UniProt Q9UHD2); assay: TBK1 enzyme assay (384-well flashplate kinase assay); type: biochemical; details: 10 μM ATP, 0.6 nM TBK1
# T2 sequence (Q9UHD2 1-729): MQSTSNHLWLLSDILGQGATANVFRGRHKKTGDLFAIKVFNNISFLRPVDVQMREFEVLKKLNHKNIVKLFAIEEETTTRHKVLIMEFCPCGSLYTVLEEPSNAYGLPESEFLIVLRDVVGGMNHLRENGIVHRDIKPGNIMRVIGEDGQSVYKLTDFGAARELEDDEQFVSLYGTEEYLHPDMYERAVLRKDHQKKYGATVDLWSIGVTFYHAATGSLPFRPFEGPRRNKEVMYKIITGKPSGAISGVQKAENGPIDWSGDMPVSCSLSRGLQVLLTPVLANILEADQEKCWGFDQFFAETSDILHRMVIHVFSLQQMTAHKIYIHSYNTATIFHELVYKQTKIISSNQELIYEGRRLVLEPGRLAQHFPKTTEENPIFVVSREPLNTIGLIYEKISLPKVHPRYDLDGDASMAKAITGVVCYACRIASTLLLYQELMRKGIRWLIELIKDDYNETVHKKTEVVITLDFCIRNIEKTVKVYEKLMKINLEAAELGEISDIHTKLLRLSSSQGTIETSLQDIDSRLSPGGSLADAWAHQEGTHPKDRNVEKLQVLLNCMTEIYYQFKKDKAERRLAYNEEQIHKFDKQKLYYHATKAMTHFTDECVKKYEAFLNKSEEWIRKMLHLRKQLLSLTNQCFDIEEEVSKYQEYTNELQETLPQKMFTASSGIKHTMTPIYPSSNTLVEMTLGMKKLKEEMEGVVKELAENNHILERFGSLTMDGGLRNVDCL
# Procedure: Test for the Inhibition of TBK1
# as §1
# 0.6 nM TANK binding kinase (TBK1), 800 nM biotinylated MELK-derived peptide (biotin-Ah-Ah-[…]) and 10 μM ATP (spiked with 0.25 μCi of ^33P-ATP/well) are incubated at 30° C. for 120 min in a total volume of 50 μl (10 mM MOPS, 10 mM Mg acetate, 0.1 mM EGTA, 1 mM DTT, 0.02% of Brij35, 0.1% of BSA, pH 7.5) with or without test compound. The reaction is stopped with 25 μl of 200 mM EDTA. After 30 min at room temperature, the liquid is removed, and each well is washed three times with 100 μl of 0.9% sodium chloride solution. Non-specific reaction is measured in the presence of 100 nM staurosporine. The radioactivity is measured in a Topcount (PerkinElmer). The results (for example IC50 values) are calculated using program tools provided by the IT Department (for example Assay-Explorer, Symyx). Cell Test
SMILES,pIC50 (TBK1 + IKKε),pIC50 (IKKε),pIC50 [1]
"O=C(NCCCNc1nc(Nc2cccc(NC(=O)N3CCCC3)c2)ncc1I)c1cccs1 [BX-795, reference compound]",6.10 to 6.70,–,–
"COc1ccc2c(-c3ccc(OC4CCOCC4)c(C#N)c3)c[nH]c2n1 [Compound A3, 5-(6-methoxy-1H-pyrrolo[2,3-b]pyridin-3-yl)-2-tetrahydropyran-4-yloxybenzonitrile]",–,4.30 to 5.52,4.30 to 5.52
"N#Cc1cc(-c2c[nH]c3ncc(Br)cc23)ccc1OC1CCOCC1 [Compound A5, 5-(5-bromo-1H-pyrrolo[2,3-b]pyridin-3-yl)-2-tetrahydropyran-4-yl-oxy-benzonitrile]",–,4.30 to 5.52,4.30 to 5.52
"N#Cc1cc(-c2c[nH]c3ncc(Br)cc23)ccc1OCC1CC1 [Compound A14, 5-(5-bromo-1H-pyrrolo[2,3-b]pyridin-3-yl)-2-(cyclopropylmethoxy)benzonitrile]",–,4.30 to 5.52,4.30 to 5.52
"N#Cc1cc(-c2c[nH]c3ncc(-c4cnn(C5CCN(S(=O)(=O)c6ccccc6)CC5)c4)cc23)cnc1OC1CCOCC1 [Compound A19, 5-[5-[1-[1-(benzenesulfonyl)-4-piperidyl]pyrazol-4-yl]-1H-pyrrolo[2,3-b]pyridin-3-yl]-2-tetrahydropyran-4-yloxypyridine-3-carbonitrile]",–,5.52 to 6.52,5.52 to 6.52

# Further lines, results first:
pIC50 (TBK1 + IKKε),pIC50 (IKKε),pIC50 [1],SMILES
–,5.52 to 6.52,5.52 to 6.52,"COc1ccnc2[nH]cc(-c3ccc(OC4CCOCC4)c(C#N)c3)c12 [Compound A2, 5-(4-methoxy-1H-pyrrolo[2,3-b]pyridin-3-yl)-2-tetrahydropyran-4-yloxybenzonitrile]"
–,5.52 to 6.52,> 6.52,"N#Cc1ccc(-c2cnc3[nH]cc(-c4ccc(OC5CCOCC5)c(C#N)c4)c3c2)cc1 [Compound A6, 5-[5-(4-cyanophenyl)-1H-pyrrolo[2,3-b]pyridin-3-yl]-2-tetrahydropyran-4-yloxybenzonitrile]"
–,5.52 to 6.52,> 6.52,"Cc1[nH]c2ncc(-c3cnn(C)c3)cc2c1-c1ccc(OC2CCOCC2)c(C#N)c1 [Compound A11, 5-[2-methyl-5-(1-methylpyrazol-4-yl)-1H-pyrrolo[2,3-b]pyridin-3-yl]-2-tetrahydropyran-4-yloxybenzonitrile]"
